Usually GI50 stands for the concentration giving 50% growth inhibition.

Each structure is given as a SMILES string.

This assay has as its system COLO 205. The assay is described as follows: NCI cancer cell line screen (sulforhodamin B). In kind it is cell-based. As to conditions: Homo sapiens; COLO 205, Colon; 48 h; read-out: log10 GI50 (converted). The procedure, abridged:
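Read-out is spectrophotometric optical density of solubilised sulforhodamine B bound to cellular protein, expressed as proliferation relative to untreated cells. Cells are incubated with compound for 48 h and fixed with trichloroacetic acid before staining.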

With `COc1ccc(Nc2nccc(-c3ccc4c(c3)CCCC(=O)N4)n2)cc1O` [Compound 2n, 7-[2-(3-Hydroxy-4-methoxyanilino)pyrimidin-4-yl]-1,3,4,5-tetrahydro-2H-1-benzazepin-2-one], the GI50 is 26.3 µM.
